Patent US9499502B2, “5-substituted iminothiazines and their mono- and dioxides as BACE inhibitors, compositions, and their use” (Merck Sharp & Dohme Corp., priority 2011, dated 2016)
pKi: −log10 of the molar value.

Target: soluble human BACE1 catalytic domain (Homo sapiens (Human), UniProt P56817)
Experiment: BACE1 HTRF FRET Assay
Conditions: read-out: BACE1 % Inh. at 10 μM, at 10 μM

Sequence of soluble human BACE1 catalytic domain (P56817 75-416): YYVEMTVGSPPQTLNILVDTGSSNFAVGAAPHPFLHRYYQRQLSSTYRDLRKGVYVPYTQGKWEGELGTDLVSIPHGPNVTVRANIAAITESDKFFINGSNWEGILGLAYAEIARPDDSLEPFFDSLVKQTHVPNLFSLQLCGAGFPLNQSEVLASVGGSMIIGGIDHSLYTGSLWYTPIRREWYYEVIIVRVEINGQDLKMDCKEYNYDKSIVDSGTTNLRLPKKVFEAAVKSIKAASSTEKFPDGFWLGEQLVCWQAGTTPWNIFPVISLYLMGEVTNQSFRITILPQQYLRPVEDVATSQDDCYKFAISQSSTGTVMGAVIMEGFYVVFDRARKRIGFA

inhibition at 10 µM [%]	SMILES
29	CC1(C)C(=N)N[C@](C)(c2nc(-c3cncc(C#N)c3)ccc2F)CS1(=O)=O [Example 16d]
31	COc1cccc2cc(-c3ccc(F)c([C@]4(C)CS(=O)(=O)C(C)(C)C(=N)N4)n3)[nH]c12 [Example 16e]

Same assay, conditions: read-out: BACE1 Ki; Ki calculated from IC50 using the Cheng-Prusoff equation

pKi	SMILES
7.00	CC1(C)C(=N)N[C@](C)(c2nc(NC(=O)c3ccncn3)ccc2F)CS1(=O)=O [Example 9ch]
8.23	CC[C@@]1(C)C(=N)N[C@](C)(c2cc(NC(=O)c3ccc(F)cn3)ccc2F)CS1(=O)=O [Example 9cl-a]
7.65	CC[C@]1(C)C(=N)N[C@](C)(c2cc(NC(=O)c3ccc(F)cn3)ccc2F)CS1(=O)=O [Example 9cl-b]
8.25	CC[C@@]1(C)C(=N)N[C@](C)(c2cc(NC(=O)c3ccc(OC)cn3)ccc2F)CS1(=O)=O [Example 9cm-a]
8.24	C[C@@]1(c2cc(NC(=O)c3ccc(F)cn3)ccc2F)CS(=O)(=O)[C@@](C)(c2cccc(C(F)(F)F)c2)C(=N)N1 [Example 9co-a]
7.74	COCC(=O)Nc1ccc(F)c([C@]2(C)CS(=O)(=O)[C@@](C)(c3cccc(C(F)(F)F)c3)C(=N)N2)c1 [Example 9cp-a]
7.88	COc1cnc(C(=O)Nc2ccc(F)c([C@]3(C)CS(=O)(=O)[C@@](C)(C4CC4)C(=N)N3)c2)cn1 [Example 9cq-a]
8.68	C[C@]1(CC2CCOCC2)C(=N)N[C@](C)(c2cc(NC(=O)c3ccc(F)cn3)ccc2F)CS1(=O)=O [Example 9cr-a]
8.80	C[C@]1(CC2CCOCC2)C(=N)N[C@](C)(c2cc(NC(=O)c3ccc(Cl)cn3)ccc2F)CS1(=O)=O [Example 9cs-a]
8.41	COc1cnc(C(=O)Nc2ccc(F)c([C@]3(C)CS(=O)(=O)[C@@](C)(CC4CCOCC4)C(=N)N3)c2)cn1 [Example 9ct-a]
8.11	C[C@@]1(c2cc(NC(=O)c3ccc(F)cn3)ccc2F)CS(=O)(=O)[C@@](C)(c2ccccn2)C(=N)N1 [Example 9cv-a]
8.36	C[C@@]1(c2cc(NC(=O)c3ccc(Cl)cn3)ccc2F)CS(=O)(=O)[C@@](C)(c2ccccn2)C(=N)N1 [Example 9cw-a]
8.15	COc1ccc(C(=O)Nc2ccc(F)c([C@]3(C)CS(=O)(=O)[C@@](C)(c4ccccn4)C(=N)N3)c2)nc1 [Example 9cx-a]
8.27	COc1cnc(C(=O)Nc2ccc(F)c([C@]3(C)CS(=O)(=O)C(C)(C)C(=N)N3)c2)c(F)c1 [Example 9d]
8.44	C[C@@]1(c2cc(NC(=O)c3ccc(F)cn3)ccc2F)CS(=O)(=O)[C@@](C)(c2cccc(F)c2)C(=N)N1 [Example 9da-a]
6.67	COc1ccc(C(=O)Nc2ccc(F)c([C@]3(C)CS(=O)(=O)[C@](C)(c4cccc(F)c4)C(=N)N3)c2)nc1 [Example 9dc-b]
8.41	COc1cnc(C(=O)Nc2ccc(F)c([C@]3(C)CS(=O)(=O)[C@@](C)(c4cccc(F)c4)C(=N)N3)c2)cn1 [Example 9dd-a]
8.46	C[C@@]1(c2cc(NC(=O)c3ccc(C(F)(F)F)cn3)ccc2F)CS(=O)(=O)[C@@](C)(c2cccc(F)c2)C(=N)N1 [Example 9de-a]
8.35	COc1cnc(C(=O)Nc2ccc(F)c([C@]3(C)CS(=O)(=O)[C@@](C)(c4ccc(F)cc4)C(=N)N3)c2)cn1 [Example 9dg-a]
8.12	C[C@]1(CC2CC2)C(=N)N[C@](C)(c2cc(NC(=O)c3ccc(F)cn3)ccc2F)CS1(=O)=O [Example 9dh-a]
7.32	C[C@@]1(c2cc(NC(=O)c3ccc(F)cn3)ccc2F)CS(=O)(=O)[C@](C)(CC2CC2)C(=N)N1 [Example 9dh-b]
8.37	C[C@]1(CC2CC2)C(=N)N[C@](C)(c2cc(NC(=O)c3ccc(Cl)cn3)ccc2F)CS1(=O)=O [Example 9di-a]

pKi	SMILES
7.81	C[C@@]1(c2cc(NC(=O)c3ccc(Cl)cn3)ccc2F)CS(=O)(=O)[C@](C)(CC2CC2)C(=N)N1 [Example 9di-b]
8.37	COc1ccc(C(=O)Nc2ccc(F)c([C@]3(C)CS(=O)(=O)[C@@](C)(CC4CC4)C(=N)N3)c2)nc1 [Example 9dj-a]
7.57	COc1ccc(C(=O)Nc2ccc(F)c([C@]3(C)CS(=O)(=O)[C@](C)(CC4CC4)C(=N)N3)c2)nc1 [Example 9dj-b]
8.15	COc1cnc(C(=O)Nc2ccc(F)c([C@]3(C)CS(=O)(=O)[C@@](C)(CC4CC4)C(=N)N3)c2)cn1 [Example 9dk-a]
8.36	C[C@]1(CC2CC2)C(=N)N[C@](C)(c2cc(NC(=O)c3ccc(C(F)(F)F)cn3)ccc2F)CS1(=O)=O [Example 9dl-a]
8.40	C=CC[C@@]1(C)C(=N)N[C@](C)(c2cc(NC(=O)c3cnc(OC)cn3)ccc2F)CS1(=O)=O [Example 9dm-a]
7.67	C[C@@]1(c2cc(NC(=O)c3ccc(F)cn3)ccc2F)CS(=O)(=O)[C@@](C)(c2ccccc2F)C(=N)N1 [Example 9dn-a]
8.21	C[C@]1(CC(F)(F)F)C(=N)N[C@](C)(c2cc(NC(=O)c3ccc(F)cn3)ccc2F)CS1(=O)=O [Example 9dp-a]
8.07	COc1ccc(C(=O)Nc2ccc(F)c([C@]3(C)CS(=O)(=O)[C@@](C)(CC(F)(F)F)C(=N)N3)c2)nc1 [Example 9dq-a]
8.46	C[C@@]1(c2cc(NC(=O)c3ccc(F)cn3)ccc2F)CS(=O)(=O)[C@@](C)(C2CCOCC2)C(=N)N1 [Example 9ds-a]
8.52	COc1ccc(C(=O)Nc2ccc(F)c([C@]3(C)CS(=O)(=O)[C@@](C)(C4CCOCC4)C(=N)N3)c2)nc1 [Example 9dt-a]
8.47	COc1cnc(C(=O)Nc2ccc(F)c([C@]3(C)CS(=O)(=O)[C@@](C)(C4CCOCC4)C(=N)N3)c2)cn1 [Example 9du-a]
8.15	C[C@@]1(c2cc(NC(=O)c3ccc(F)cn3)ccc2F)CS(=O)(=O)[C@@](C)(C2CCC2)C(=N)N1 [Example 9dv-a]
8.12	COc1cnc(C(=O)Nc2ccc(F)c([C@]3(C)CS(=O)(=O)[C@@](C)(C4CCC4)C(=N)N3)c2)cn1 [Example 9dy-a]
8.47	C[C@@]1(c2cc(NC(=O)c3ccc(C(F)(F)F)cn3)ccc2F)CS(=O)(=O)[C@@](C)(C2CCC2)C(=N)N1 [Example 9dz-a]
9.15	CC1(C)C(=N)N[C@](C)(c2cc(NC(=O)c3cnc(C(F)(F)F)cn3)ccc2F)CS1(=O)=O [Example 9e]
7.50	CC(C)[C@@]1(C)C(=N)N[C@](C)(c2cc(NC(=O)c3ccc(F)cn3)ccc2F)CS1(=O)=O [Example 9ea-a]
7.78	COc1ccc(C(=O)Nc2ccc(F)c([C@]3(C)CS(=O)(=O)[C@@](C)(C(C)C)C(=N)N3)c2)nc1 [Example 9eb-a]
8.80	C[C@@]1(c2cc(NC(=O)c3ccc(F)cn3)ccc2F)CS(=O)(=O)[C@@](C)(c2cc(C(F)(F)F)ccn2)C(=N)N1 [Example 9ed-a]
7.82	C[C@@]1(c2cc(NC(=O)c3ccc(F)cn3)ccc2F)CS(=O)(=O)[C@@](C)(c2cc(C(F)(F)F)ccn2)C(=N)N1 [Example 9ed-b]
7.96	CC1(C)C(=N)N[C@](C)(c2cc(NC(=O)c3ccc(F)cc3F)ccc2F)CS1(=O)=O [Example 9f]
8.72	Cc1nc(C(=O)Nc2ccc(F)c([C@]3(C)CS(=O)(=O)C(C)(C)C(=N)N3)c2)no1 [Example 9g]

pKi	SMILES
8.57	Cc1noc(C(=O)Nc2ccc(F)c([C@]3(C)CS(=O)(=O)C(C)(C)C(=N)N3)c2)n1 [Example 9h]
9.22	CC1(C)C(=N)N[C@](C)(c2cc(NC(=O)c3ccn(C(F)F)n3)ccc2F)CS1(=O)=O [Example 9j]
8.01	CC1(C)C(=N)N[C@](C)(c2cc(NC(=O)c3ccc(F)cn3)cc(F)c2F)CS1(=O)=O [Example 9k]
8.37	CC1(C)C(=N)N[C@](C)(c2cc(NC(=O)c3ccc(Cl)cn3)cc(F)c2F)CS1(=O)=O [Example 9l]
8.12	COc1ccc(C(=O)Nc2cc(F)c(F)c([C@]3(C)CS(=O)(=O)C(C)(C)C(=N)N3)c2)nc1 [Example 9m]
8.52	COc1cnc(C(=O)Nc2cc(F)c(F)c([C@]3(C)CS(=O)(=O)C(C)(C)C(=N)N3)c2)c(F)c1 [Example 9o]
8.44	CC1(C)C(=N)N[C@](C)(c2cc(NC(=O)c3cnc(C(F)F)cn3)ccc2F)CS1(=O)=O [Example 9q]
8.28	CC1(C)C(=N)N[C@](C)(c2cc(NC(=O)c3cnc(C(F)F)cn3)cc(F)c2F)CS1(=O)=O [Example 9r]
8.20	CC1(C)C(=N)N[C@](C)(c2cc(NC(=O)c3ccc(F)cn3)cc(Cl)c2F)CS1(=O)=O [Example 9s]
8.48	CC1(C)C(=N)N[C@](C)(c2cc(NC(=O)c3ccc(Cl)cn3)cc(Cl)c2F)CS1(=O)=O [Example 9t]
8.24	COc1ccc(C(=O)Nc2cc(Cl)c(F)c([C@]3(C)CS(=O)(=O)C(C)(C)C(=N)N3)c2)nc1 [Example 9u]
8.36	COc1cnc(C(=O)Nc2cc(Cl)c(F)c([C@]3(C)CS(=O)(=O)C(C)(C)C(=N)N3)c2)cn1 [Example 9w]
5.30	CC1(C)C(=N)N[C@](C)(c2nc(-c3cccc(C#N)c3)ccc2F)CS1(=O)=O [Example 16b]
5.45	CC1(C)C(=N)N[C@](C)(c2nc(-c3ccc(C#N)s3)ccc2F)CS1(=O)=O [Example 16c]
6.87	CCc1cccc(NC(=O)c2cc(Cl)c([C@]3(C)CS(=O)(=O)C(C)(C)C(=N)N3)s2)n1 [Example 19]
6.58	CC1(C)C(=N)N[C@](C)(c2sc(C(=O)Nc3cccc(F)n3)cc2Cl)CS1(=O)=O [Example 21]
6.76	CC1(C)C(=N)N[C@](C)(c2sc(C(=O)Nc3cccc(C(F)(F)F)n3)cc2Cl)CS1(=O)=O [Example 22]
5.85	CC1(C)C(=N)N[C@](C)(c2sc(C(=O)NCc3ncccc3Cl)cc2Cl)CS1(=O)=O [Example 22a]
5.45	CC1(C)C(=N)N[C@](C)(c2sc(C(=O)NCc3ncccn3)cc2Cl)CS1(=O)=O [Example 22b]
5.10	Cc1cccc(CNC(=O)c2cc(Cl)c([C@]3(C)CS(=O)(=O)C(C)(C)C(=N)N3)s2)n1 [Example 22c]
5.33	CC1(C)C(=N)N[C@](C)(c2sc(C(=O)NCc3ccc4cnccc4c3)cc2Cl)CS1(=O)=O [Example 22d]

SMILES	pKi
C[C@@]1(c2cc(NC(=O)c3ccc(F)cn3)ccc2F)CS(=O)(=O)[C@@](C)(c2ccc(F)cc2)C(=N)N1 [Example 9df-a]	8.64
